The source made the active and inactive calls. The calls are words filed in the database; no cut-off is given here.
Assays:
T47D = assay: Growth inhibition of human T47D cells after 48 hrs by SRB assay; assay type: functional
MCF7 [1] = assay: Cell cycle arrest in human MCF7 cells assessed as accumulation at G2/M phase at 4 uM after 24 hrs by propidium iodide staining-based flow cytometry (reference value: 15.79%); assay type: functional
NCI-H23 = assay: Growth inhibition of human NCI-H23 cells after 48 hrs by SRB assay; assay type: functional; settings: NCI-H23, 48 h
TK-10 = assay: Growth inhibition of human TK10 cells after 48 hrs by SRB assay; assay type: functional; settings: TK-10, 48 h
[2] = Growth inhibition of human OVCAR5 cells after 48 hrs by SRB assay; assay type: functional; settings: OVCAR-5, 48 h
SF-268 = assay: Growth inhibition of human SF268 cells after 48 hrs by SRB assay; assay type: functional; settings: SF-268, 48 h
PC-3 = assay: Growth inhibition of human PC3 cells after 48 hrs by SRB assay; assay type: functional; settings: PC-3, 48 h
CAKI-1 = assay: Growth inhibition of human Caki1 cells after 48 hrs by SRB assay; assay type: functional; settings: CAKI-1, 48 h
[3] = Growth inhibition of human HCT15 cells after 48 hrs by SRB assay; assay type: functional; settings: HCT-15, 48 h
[4] = Growth inhibition of human SF539 cells after 48 hrs by SRB assay; assay type: functional; settings: SF-539, 48 h
NCI-H460 = assay: Growth inhibition of human NCI-H460 cells after 48 hrs by SRB assay; assay type: functional; settings: NCI-H460, 48 h
SN12C = assay: Growth inhibition of human SN12C cells after 48 hrs by SRB assay; assay type: functional
SNB-19 = assay: Growth inhibition of human SNB19 cells after 48 hrs by SRB assay; assay type: functional; settings: SNB-19, 48 h
IGROV-1 = assay: Growth inhibition of human IGROV1 cells after 48 hrs by SRB assay; assay type: functional; settings: IGROV-1, 48 h
HOP-62 = assay: Growth inhibition of human HOP62 cells after 48 hrs by SRB assay; assay type: functional; settings: HOP-62, 48 h
MDA-MB-468 = assay: Growth inhibition of human MDA-MB-468 cells after 48 hrs by SRB assay; assay type: functional; settings: MDA-MB-468, 48 h
[5] = Growth inhibition of human OVCAR4 cells after 48 hrs by SRB assay; assay type: functional; settings: OVCAR-4, 48 h
A549 = assay: Growth inhibition of human A549 cells after 48 hrs by SRB assay; assay type: functional; settings: A549, 48 h
SNB-75 = assay: Growth inhibition of human SNB75 cells after 48 hrs by SRB assay; assay type: functional; settings: SNB-75, 48 h
HL-60(TB) = assay: Growth inhibition of human HL-60(TB) cells after 48 hrs by SRB assay; assay type: functional; settings: HL-60, 48 h
RPMI-8226 = assay: Growth inhibition of human RPMI8226 cells after 48 hrs by SRB assay; assay type: functional; settings: RPMI-8226, 48 h
COLO 205 = assay: Growth inhibition of human COLO205 cells after 48 hrs by SRB assay; assay type: functional; settings: COLO 205, 48 h
HCT-116 = assay: Growth inhibition of human HCT116 cells after 48 hrs by SRB assay; assay type: functional; settings: HCT-116, 48 h
SK-MEL-28 = assay: Growth inhibition of human SK-MEL-28 cells after 48 hrs by SRB assay; assay type: functional; settings: SK-MEL-28, 48 h
A498 = assay: Growth inhibition of human A498 cells after 48 hrs by SRB assay; assay type: functional; settings: A498, 48 h
DU-145 = assay: Growth inhibition of human DU145 cells after 48 hrs by SRB assay; assay type: functional; settings: DU-145, 48 h
[6] = Growth inhibition of human HCC2998 cells after 48 hrs by SRB assay; assay type: functional; settings: HCC 2998, 48 h
K562 = assay: Growth inhibition of human K562 cells after 48 hrs by SRB assay; assay type: functional; settings: K562, 48 h
[7] = Growth inhibition of human RXF393 cells after 48 hrs by SRB assay; assay type: functional; settings: RXF 393, 48 h
MCF7 [8] = assay: Growth inhibition of human MCF7 cells after 48 hrs by SRB assay; assay type: functional; settings: MCF7, 48 h
MDA-MB-435 = assay: Growth inhibition of human MDA-MB-435 cells after 48 hrs by SRB assay; assay type: functional; settings: MDA-MB-435, 48 h
MCF7 [9] = assay: Cell cycle arrest in human MCF7 cells assessed as accumulation at S phase at 4 uM after 24 hrs by propidium iodide staining-based flow cytometry (reference value: 20.17%); assay type: functional
MCF7 [10] = assay: Growth inhibition of human MCF7 cells assessed as cell viability at 4 uM after 24 hrs by MTT assay; assay type: functional, cell-based
Malme-3M = assay: Growth inhibition of human MALME-3M cells after 48 hrs by SRB assay; assay type: functional
NCI-H322M = assay: Growth inhibition of human NCI-H322M cells after 48 hrs by SRB assay; assay type: functional
SK-MEL-5 = assay: Growth inhibition of human SK-MEL-5 cells after 48 hrs by SRB assay; assay type: functional; settings: SK-MEL-5, 48 h
[11] = Growth inhibition of human SF295 cells after 48 hrs by SRB assay; assay type: functional; settings: SF-295, 48 h
[12] = Growth inhibition of human BT549 cells after 48 hrs by SRB assay; assay type: functional; settings: BT-549, 48 h
MDA-MB-231 = assay: Growth inhibition of human MDA-MB-231 cells after 48 hrs by SRB assay; assay type: functional; settings: MDA-MB-231, 48 h
[13] = Growth inhibition of human UACC257 cells after 48 hrs by SRB assay; assay type: functional; settings: UACC-257, 48 h
[14] = Growth inhibition of human LOXIMVI cells after 48 hrs by SRB assay; assay type: functional; settings: LOX IMVI
KM12 = assay: Growth inhibition of human KM12 cells after 48 hrs by SRB assay; assay type: functional; settings: KM12, 48 h
[15] = Growth inhibition of human OVCAR8 cells after 48 hrs by SRB assay; assay type: functional; settings: OVCAR-8, 48 h
[16] = Growth inhibition of human MOLT4 cells after 48 hrs by SRB assay; assay type: functional; settings: MOLT-4, 48 h
SK-OV-3 = assay: Growth inhibition of human SKOV3 cells after 48 hrs by SRB assay; assay type: functional; settings: SK-OV-3, 48 h
NCI-H226 = assay: Growth inhibition of human NCI-H226 cells after 48 hrs by SRB assay; assay type: functional; settings: NCI-H226, 48 h
[17] = Growth inhibition of human UACC62 cells after 48 hrs by SRB assay; assay type: functional; settings: UACC-62, 48 h
NCI-H522 = assay: Growth inhibition of human NCI-H522 cells after 48 hrs by SRB assay; assay type: functional; settings: NCI-H522, 48 h
SW-620 = assay: Growth inhibition of human SW620 cells after 48 hrs by SRB assay; assay type: functional; settings: SW-620, 48 h
[18] = Growth inhibition of human OVCAR3 cells after 48 hrs by SRB assay; assay type: functional; settings: OVCAR-3, 48 h
[19] = Growth inhibition of human NCI-ADR-RES cells after 48 hrs by SRB assay; assay type: functional
M14 = assay: Growth inhibition of human M14 cells after 48 hrs by SRB assay; assay type: functional; settings: M14, 48 h
786-0 = assay: Growth inhibition of human 786-0 cells after 48 hrs by SRB assay; assay type: functional; settings: 786-0, 48 h
[20] = Growth inhibition of human HOP92 cells after 48 hrs by SRB assay; assay type: functional; settings: HOP-92, 48 h
ACHN = assay: Growth inhibition of human ACHN cells after 48 hrs by SRB assay; assay type: functional
[21] = Growth inhibition of human UO31 cells after 48 hrs by SRB assay; assay type: functional; settings: UO-31, 48 h
SK-MEL-2 = assay: Growth inhibition of human SK-MEL-2 cells after 48 hrs by SRB assay; assay type: functional; settings: SK-MEL-2, 48 h
CCRF-CEM = assay: Growth inhibition of human CCRF-CEM cells after 48 hrs by SRB assay; assay type: functional
HT-29 = assay: Growth inhibition of human HT-29 cells after 48 hrs by SRB assay; assay type: functional; settings: HT-29, 48 h
U-251 = assay: Growth inhibition of human U251 cells after 48 hrs by SRB assay; assay type: functional; settings: U-251, 48 h
[22] = Growth inhibition of human EKVX cells after 48 hrs by SRB assay; assay type: functional
SR = assay: Growth inhibition of human SR cells after 48 hrs by SRB assay; assay type: functional
MCF7 [23] = assay: Cell cycle arrest in human MCF7 cells assessed as accumulation at G0/G1 phase at 4 uM after 24 hrs by propidium iodide staining-based flow cytometry (reference value: 64.04%); assay type: functional
[24] = Growth inhibition of human Hs578T cells after 48 hrs by SRB assay; assay type: functional; settings: Hs-578T

COc1cc(C(=O)/C=C/c2c(-c3ccc(F)cc3)nc3ncccn23)cc(OC)c1OC
GI50 (T47D): 2.09 µM | Activity (MCF7 [1]): 3.95% | GI50 (NCI-H23): 1.58 µM | GI50 (TK-10): 3.25 µM | GI50 [2]: 2.46 µM | GI50 (SF-268): 1.9 µM | GI50 (PC-3): 4.35 µM | GI50 (CAKI-1): 2.06 µM | GI50 [3]: 2.11 µM | GI50 [4]: 1.55 µM | GI50 (NCI-H460): 1.59 µM | GI50 (SN12C): 2.26 µM | GI50 (SNB-19): 3.12 µM | GI50 (IGROV-1): 1.93 µM | GI50 (HOP-62): 3.12 µM | GI50 (MDA-MB-468): 2.75 µM | GI50 [5]: 2.93 µM | GI50 (A549): 3.34 µM | GI50 (SNB-75): 2.39 µM | GI50 (HL-60(TB)): 3.33 µM | GI50 (RPMI-8226): 2.56 µM | GI50 (COLO 205): 1.7 µM | GI50 (HCT-116): 1.53 µM | GI50 (SK-MEL-28): 3.68 µM | GI50 (A498): 2.2 µM | GI50 (DU-145): 1.63 µM | GI50 [6]: 1.77 µM | GI50 (K562): 3.03 µM | GI50 [7]: 1.44 µM | GI50 (MCF7 [8]): 1.61 µM | GI50 (MDA-MB-435): 2.36 µM | Activity (MCF7 [9]): 21.89% | inhibition (MCF7 [10]): Active | GI50 (Malme-3M): 2.84 µM | GI50 (NCI-H322M): 2.07 µM | GI50 (SK-MEL-5): 2.22 µM | GI50 [11]: 2.43 µM | GI50 [12]: 1.8 µM | GI50 (MDA-MB-231): 2.99 µM | GI50 [13]: 3.73 µM | GI50 [14]: 1.57 µM | GI50 (KM12): 1.69 µM | GI50 [15]: 2.69 µM | GI50 [16]: 3.75 µM | GI50 (SK-OV-3): 2.64 µM | GI50 (NCI-H226): 3.08 µM | GI50 [17]: 1.74 µM | GI50 (NCI-H522): 2.87 µM | GI50 (SW-620): 2.09 µM | GI50 [18]: 1.4 µM | GI50 [19]: 1.58 µM | GI50 (M14): 2.16 µM | GI50 (786-0): 2.76 µM | GI50 [20]: 1.77 µM | GI50 (ACHN): 2.21 µM | GI50 [21]: 0.73 µM | GI50 (SK-MEL-2): 2.38 µM | GI50 (CCRF-CEM): 4.05 µM | GI50 (HT-29): 2.52 µM | GI50 (U-251): 1.68 µM | GI50 [22]: 2.71 µM | GI50 (SR): 2.28 µM | Activity (MCF7 [23]): 74.16% | GI50 [24]: 2.01 µM

— ChEMBL document CHEMBL3217491, “Design, synthesis and biological evaluation of imidazopyridine/pyrimidine-chalcone derivatives as potential anticancer agents” (2010)
